Blank lines part the entries; values can stand above or below the molecule they belong to. Activity calls are given as the source filed them.
Experiments:
[1] = target: T1, Voltage-gated N-type calcium channel alpha-1B subunit/Amyloid beta A4 precursor protein-binding family A member 1 (Homo sapiens, UniProt Q00975+Q02410); assay type: protein assay
[2] = target: T1, Voltage-gated N-type calcium channel alpha-1B subunit/Amyloid beta A4 precursor protein-binding family A member 1; assay type: protein assay; remark: listed apart in the source
[3] = growth suppression of PTEN-null colon cells, dose response, cell-based, HCT116 PTEN knockout (AID 1047); assay type: functional;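 further: HCT116 colon tumor cells with PTEN knocked out; cells exposed to compound for 60 hours before readout; potency for loss of cell viability measured by luminescence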
[4] = growth suppression of beta-catenin-knockout colon cells, dose response, cell-based, HCT116, human colon tumor (AID 1045); assay type: functional;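 further: HCT116 colon tumor cells with beta catenin knocked out; cells exposed to compound for 60 hours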
[5] = target: Glucose-6-phosphate 1-dehydrogenase (Homo sapiens, UniProt P11413); test: human G6PD enzyme inhibitors, dose response, selectivity assay for P. falciparum G6PD inhibitor project, biochemical, fluorescence (AID 504792); assay type: functional
[6] = target: DNA dC->dU-editing enzyme APOBEC-3G (Homo sapiens, UniProt Q9HC16); test: Dose Response confirmation of small molecule APOBEC3G DNA Deaminase Inhibitors via a fluorescence-based single-stranded DNA deaminase assay. [Related pubchem assays (depositor defined):AID493012, AID493028]; assay type: functional
[7] = Shn3 3'UTR reporter inhibitors, dose response, cell-based, Clone20 osteoblasts, firefly luciferase, cherry-picked (AID 624132); assay type: functional;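 further: firefly luciferase luminescence from reporter carrying the Shn3 3'UTR in osteoblasts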
[8] = HepG2 cell cytotoxicity, dose response, cytotoxicity control for Shn3 inhibitor project, CellTiter-Glo, cherry-picked (AID 624134); assay type: functional, cell-based
[9] = control 3'UTR Renilla luciferase suppression, dose response, counter-screen for Shn3 inhibitor project, cell-based, Clone20-Shn3RL, cherry-picked (AID 624133); assay type: functional
Cytochrome P450 3A4 = Cytochrome P450 3A4 (Homo sapiens, UniProt P08684); conditions: Potency;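 further: confirmatory qHTS run detecting inhibitors and substrates of CYP3A4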
Cytochrome P450 2C9 = Cytochrome P450 2C9 (Homo sapiens, UniProt P11712); conditions: Potency
Sequence of Cytochrome P450 2C9 (P11712 whole entry): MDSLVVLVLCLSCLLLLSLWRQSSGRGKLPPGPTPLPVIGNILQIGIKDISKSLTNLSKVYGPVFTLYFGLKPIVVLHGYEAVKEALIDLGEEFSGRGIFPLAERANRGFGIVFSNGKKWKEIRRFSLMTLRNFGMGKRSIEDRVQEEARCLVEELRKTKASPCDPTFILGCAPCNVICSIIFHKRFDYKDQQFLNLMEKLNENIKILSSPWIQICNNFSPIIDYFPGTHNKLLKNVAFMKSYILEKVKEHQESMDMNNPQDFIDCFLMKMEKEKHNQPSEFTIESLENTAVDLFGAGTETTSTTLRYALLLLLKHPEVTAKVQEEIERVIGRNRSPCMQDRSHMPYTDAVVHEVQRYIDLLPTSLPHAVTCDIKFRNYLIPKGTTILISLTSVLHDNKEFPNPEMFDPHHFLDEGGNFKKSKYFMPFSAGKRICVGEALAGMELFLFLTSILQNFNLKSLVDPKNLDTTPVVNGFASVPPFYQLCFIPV

[10] = HEp-2 cell cytotoxicity, dose response, cytotoxicity control for RSV inhibitor project, HTS (AID 2410); assay type: functional; conditions: human respiratory syncytial virus
[11] = target: Glyceraldehyde-3-phosphate dehydrogenase (Homo sapiens, UniProt P04406)
Sequence of Glyceraldehyde-3-phosphate dehydrogenase (P04406 whole entry): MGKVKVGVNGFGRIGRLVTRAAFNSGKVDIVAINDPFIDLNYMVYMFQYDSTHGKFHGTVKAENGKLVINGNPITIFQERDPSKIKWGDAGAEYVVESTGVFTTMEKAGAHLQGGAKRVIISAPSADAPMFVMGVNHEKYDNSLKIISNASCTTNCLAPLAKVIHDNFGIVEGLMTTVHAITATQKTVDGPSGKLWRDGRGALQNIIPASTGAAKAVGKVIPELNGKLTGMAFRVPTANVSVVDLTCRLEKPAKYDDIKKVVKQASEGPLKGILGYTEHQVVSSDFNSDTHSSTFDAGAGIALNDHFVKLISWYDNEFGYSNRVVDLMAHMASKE

[12] = target: T2, Alkaline phosphatase, tissue-nonspecific isozyme (Homo sapiens, UniProt P05186); test: human TNAP enzyme inhibitors, SAR follow-up, biochemical, luminescent, dose response (AID 1056)
T2 sequence (P05186 whole entry): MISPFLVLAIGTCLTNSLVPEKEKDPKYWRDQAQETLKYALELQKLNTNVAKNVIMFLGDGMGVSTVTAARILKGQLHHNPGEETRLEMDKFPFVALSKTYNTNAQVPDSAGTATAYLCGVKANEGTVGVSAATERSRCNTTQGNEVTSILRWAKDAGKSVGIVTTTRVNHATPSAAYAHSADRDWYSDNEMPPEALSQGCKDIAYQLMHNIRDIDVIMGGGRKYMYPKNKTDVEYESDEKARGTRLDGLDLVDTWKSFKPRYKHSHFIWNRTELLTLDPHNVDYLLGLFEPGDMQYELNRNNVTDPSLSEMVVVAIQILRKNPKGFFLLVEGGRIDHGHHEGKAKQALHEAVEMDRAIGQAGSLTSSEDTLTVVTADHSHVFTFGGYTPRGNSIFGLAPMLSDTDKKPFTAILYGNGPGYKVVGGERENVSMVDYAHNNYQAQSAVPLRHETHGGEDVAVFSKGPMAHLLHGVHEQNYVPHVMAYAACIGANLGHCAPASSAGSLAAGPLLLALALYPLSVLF

Beta-galactosidase = Beta-galactosidase (Escherichia coli, UniProt Q8VNN2); test: beta-galactosidase enzyme inhibitors and activators, dose response, artefact control for CCR6 antagonist project, biochemical, E. coli enzyme, set 3 (AID 504712); assay type: functional
Sequence of Beta-galactosidase (Q8VNN2 whole entry): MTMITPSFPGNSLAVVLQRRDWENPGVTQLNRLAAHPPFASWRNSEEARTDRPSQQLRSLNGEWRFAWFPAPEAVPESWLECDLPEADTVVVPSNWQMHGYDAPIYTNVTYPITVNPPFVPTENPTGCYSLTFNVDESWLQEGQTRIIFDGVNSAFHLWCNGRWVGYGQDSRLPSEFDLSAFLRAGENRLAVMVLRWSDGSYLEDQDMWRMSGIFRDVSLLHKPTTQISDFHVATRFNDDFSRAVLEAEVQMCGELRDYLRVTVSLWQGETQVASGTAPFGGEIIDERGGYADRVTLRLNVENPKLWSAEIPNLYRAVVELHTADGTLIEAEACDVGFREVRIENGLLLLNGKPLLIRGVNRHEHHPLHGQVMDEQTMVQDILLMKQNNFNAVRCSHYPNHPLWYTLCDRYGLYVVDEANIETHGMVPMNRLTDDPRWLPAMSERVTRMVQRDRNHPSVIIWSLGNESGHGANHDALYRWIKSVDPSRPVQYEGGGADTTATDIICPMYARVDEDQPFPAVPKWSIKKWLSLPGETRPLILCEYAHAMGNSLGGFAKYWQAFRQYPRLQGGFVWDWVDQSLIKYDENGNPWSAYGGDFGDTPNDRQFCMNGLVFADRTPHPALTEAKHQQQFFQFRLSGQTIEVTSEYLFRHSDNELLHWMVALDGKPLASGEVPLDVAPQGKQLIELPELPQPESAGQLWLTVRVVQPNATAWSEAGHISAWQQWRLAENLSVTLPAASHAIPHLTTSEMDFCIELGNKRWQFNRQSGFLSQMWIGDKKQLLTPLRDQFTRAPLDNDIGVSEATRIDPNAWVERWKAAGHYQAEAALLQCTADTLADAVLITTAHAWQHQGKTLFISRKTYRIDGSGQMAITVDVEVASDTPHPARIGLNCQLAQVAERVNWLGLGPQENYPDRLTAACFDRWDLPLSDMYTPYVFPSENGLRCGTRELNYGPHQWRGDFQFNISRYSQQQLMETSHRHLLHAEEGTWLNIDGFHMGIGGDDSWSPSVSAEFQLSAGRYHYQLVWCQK

Bcl-2-related protein A1 = target: T3, Bcl-2-related protein A1 (Mus musculus, UniProt Q07440); assay type: functional;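 further: confirmatory dose–response counterscreen on Bfl-1, used to check hits from a UBC13 polyubiquitin inhibitor campaign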
T3 sequence (Q07440 whole entry): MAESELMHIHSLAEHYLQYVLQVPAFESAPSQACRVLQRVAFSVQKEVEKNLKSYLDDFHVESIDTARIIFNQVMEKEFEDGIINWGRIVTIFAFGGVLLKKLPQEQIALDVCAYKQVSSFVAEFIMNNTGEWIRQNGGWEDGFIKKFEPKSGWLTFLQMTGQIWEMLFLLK

[13] = target: T4, Ubiquitin-conjugating enzyme E2 N (Homo sapiens, UniProt P61088); assay type: functional
T4 sequence (P61088 whole entry): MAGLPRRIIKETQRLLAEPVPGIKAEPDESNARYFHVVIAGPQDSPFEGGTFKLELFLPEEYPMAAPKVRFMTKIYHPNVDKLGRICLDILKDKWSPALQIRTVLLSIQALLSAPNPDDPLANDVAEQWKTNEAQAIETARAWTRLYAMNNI

[14] = target: T4, Ubiquitin-conjugating enzyme E2 N; assay type: functional; remark: listed apart in the source

T1 sequence (Q00975 whole entry): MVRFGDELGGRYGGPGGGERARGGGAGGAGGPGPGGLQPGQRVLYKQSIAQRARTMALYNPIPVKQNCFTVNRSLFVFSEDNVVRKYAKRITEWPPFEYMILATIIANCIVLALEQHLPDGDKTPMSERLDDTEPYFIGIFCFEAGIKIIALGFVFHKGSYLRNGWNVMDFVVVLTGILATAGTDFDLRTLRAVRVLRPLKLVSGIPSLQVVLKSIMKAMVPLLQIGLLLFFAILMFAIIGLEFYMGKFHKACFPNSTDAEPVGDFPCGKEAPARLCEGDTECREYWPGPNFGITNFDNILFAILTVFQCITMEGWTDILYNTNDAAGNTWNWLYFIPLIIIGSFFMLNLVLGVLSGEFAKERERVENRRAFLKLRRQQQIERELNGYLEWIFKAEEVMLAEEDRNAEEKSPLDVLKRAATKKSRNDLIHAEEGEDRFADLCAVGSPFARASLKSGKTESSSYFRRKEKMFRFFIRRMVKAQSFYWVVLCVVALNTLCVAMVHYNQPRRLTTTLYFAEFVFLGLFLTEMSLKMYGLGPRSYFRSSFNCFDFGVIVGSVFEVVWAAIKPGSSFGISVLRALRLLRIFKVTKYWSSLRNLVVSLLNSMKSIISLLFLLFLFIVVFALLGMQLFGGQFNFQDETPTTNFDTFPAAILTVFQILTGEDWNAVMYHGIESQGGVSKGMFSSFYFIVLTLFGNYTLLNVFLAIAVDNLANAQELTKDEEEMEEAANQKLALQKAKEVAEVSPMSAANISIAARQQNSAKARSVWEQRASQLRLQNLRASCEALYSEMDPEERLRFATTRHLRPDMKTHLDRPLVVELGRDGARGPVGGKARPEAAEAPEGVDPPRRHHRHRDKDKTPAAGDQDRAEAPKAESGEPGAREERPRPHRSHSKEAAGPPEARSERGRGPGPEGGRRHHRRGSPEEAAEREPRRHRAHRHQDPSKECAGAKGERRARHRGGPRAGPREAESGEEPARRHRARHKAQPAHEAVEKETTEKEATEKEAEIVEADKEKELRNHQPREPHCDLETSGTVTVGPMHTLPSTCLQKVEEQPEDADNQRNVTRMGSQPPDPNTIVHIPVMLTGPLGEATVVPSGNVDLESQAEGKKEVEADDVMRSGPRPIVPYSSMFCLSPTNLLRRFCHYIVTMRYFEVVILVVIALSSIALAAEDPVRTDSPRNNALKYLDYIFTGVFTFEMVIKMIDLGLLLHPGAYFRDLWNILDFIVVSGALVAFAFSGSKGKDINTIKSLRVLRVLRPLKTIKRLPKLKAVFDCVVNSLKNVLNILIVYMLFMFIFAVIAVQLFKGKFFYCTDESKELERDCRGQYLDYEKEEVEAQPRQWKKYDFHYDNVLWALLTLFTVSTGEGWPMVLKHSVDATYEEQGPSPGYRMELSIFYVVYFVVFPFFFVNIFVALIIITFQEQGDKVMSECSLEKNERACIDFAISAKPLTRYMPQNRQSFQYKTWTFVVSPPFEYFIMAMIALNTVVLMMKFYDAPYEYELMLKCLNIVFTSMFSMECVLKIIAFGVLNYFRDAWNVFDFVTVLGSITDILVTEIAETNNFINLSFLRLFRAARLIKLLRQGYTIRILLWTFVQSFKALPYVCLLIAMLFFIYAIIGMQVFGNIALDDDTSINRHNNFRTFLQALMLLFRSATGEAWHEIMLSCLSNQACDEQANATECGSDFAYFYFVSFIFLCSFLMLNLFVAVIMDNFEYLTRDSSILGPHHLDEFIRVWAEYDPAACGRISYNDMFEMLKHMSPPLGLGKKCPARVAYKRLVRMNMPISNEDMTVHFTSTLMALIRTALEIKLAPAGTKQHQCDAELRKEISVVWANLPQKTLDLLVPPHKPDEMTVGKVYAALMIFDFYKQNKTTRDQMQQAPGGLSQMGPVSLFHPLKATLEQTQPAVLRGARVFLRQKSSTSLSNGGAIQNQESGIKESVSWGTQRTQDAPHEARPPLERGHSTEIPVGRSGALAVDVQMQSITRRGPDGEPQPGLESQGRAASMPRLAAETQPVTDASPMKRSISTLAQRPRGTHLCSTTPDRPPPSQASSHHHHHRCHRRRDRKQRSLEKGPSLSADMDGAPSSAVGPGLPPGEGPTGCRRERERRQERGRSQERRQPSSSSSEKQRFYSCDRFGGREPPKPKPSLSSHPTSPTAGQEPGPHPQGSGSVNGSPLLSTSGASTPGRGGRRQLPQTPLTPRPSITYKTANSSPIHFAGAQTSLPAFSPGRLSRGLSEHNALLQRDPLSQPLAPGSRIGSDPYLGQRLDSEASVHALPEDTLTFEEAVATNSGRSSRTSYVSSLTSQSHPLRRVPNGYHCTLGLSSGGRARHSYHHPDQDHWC
T1 sequence (Q02410 whole entry): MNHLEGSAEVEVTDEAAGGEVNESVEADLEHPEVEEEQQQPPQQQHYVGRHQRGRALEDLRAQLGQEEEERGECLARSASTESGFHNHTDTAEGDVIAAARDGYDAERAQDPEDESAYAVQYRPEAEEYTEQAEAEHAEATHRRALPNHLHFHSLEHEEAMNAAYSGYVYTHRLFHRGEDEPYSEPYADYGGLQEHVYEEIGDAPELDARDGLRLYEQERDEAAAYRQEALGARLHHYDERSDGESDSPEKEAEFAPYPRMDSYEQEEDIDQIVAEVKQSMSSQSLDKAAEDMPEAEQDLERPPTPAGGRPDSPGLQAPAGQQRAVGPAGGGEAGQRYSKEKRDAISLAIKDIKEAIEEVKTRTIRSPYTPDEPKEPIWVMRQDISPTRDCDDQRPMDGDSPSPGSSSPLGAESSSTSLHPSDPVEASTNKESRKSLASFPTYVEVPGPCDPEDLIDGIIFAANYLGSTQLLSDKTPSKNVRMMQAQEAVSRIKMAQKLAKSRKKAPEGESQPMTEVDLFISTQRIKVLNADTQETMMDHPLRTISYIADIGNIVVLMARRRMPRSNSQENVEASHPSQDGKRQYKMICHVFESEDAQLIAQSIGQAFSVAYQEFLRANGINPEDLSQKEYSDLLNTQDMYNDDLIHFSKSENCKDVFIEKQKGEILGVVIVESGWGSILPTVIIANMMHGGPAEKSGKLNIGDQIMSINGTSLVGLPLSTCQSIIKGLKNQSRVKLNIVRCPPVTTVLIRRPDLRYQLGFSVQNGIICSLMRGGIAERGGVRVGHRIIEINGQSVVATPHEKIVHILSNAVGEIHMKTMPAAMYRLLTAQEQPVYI

Structure (SMILES): CCOC(=O)C1CCCN(C(=O)Cn2sc3nc(C)cc(C)c3c2=O)C1 (stereo unspecified)
IC50 [1]: 12.6 µM (active) | IC50 [2]: > 50 µM (inactive) | EC50 [3]: 25.9 µM (active) | EC50 [4]: 21.6 µM (active) | IC50 [5]: 47.1 µM (inactive) | IC50 [6]: 6.17 µM (active) | AC50 [7]: 12.5 µM (active) | AC50 [8]: > 70 µM (inactive) | AC50 [9]: 7.5 µM (active)

Structure (SMILES): COc1cc(-c2nnc(SCc3c(F)cccc3Cl)o2)cc(OC)c1OC
CC50 [10]: 29.9 µM (active) | IC50 (cells): 9.1 µM (active)

Structure (SMILES): Cc1c(CC(=O)N2CCN(C(=O)C3COc4ccccc4O3)CC2)c(=O)oc2cc(O)cc(O)c12 (stereo unspecified)
IC50 (cells): 3.62 µM (active)

Structure (SMILES): COc1ccccc1NS(=O)(=O)c1ccc(OC)c2ncccc12
IC50 [11]: > 100 µM (not active) | IC50 [12]: > 100 µM (inactive)

Structure (SMILES): CCCOc1ccc(CN(CCC#N)C(=S)NC(=O)c2ccccc2)cc1
IC50 (Beta-galactosidase): > 66.6 µM (inactive)

Structure (SMILES): CCOC(=O)c1cc(-c2cccc(C(F)(F)F)c2)n[nH]1
IC50 [11]: > 100 µM (not active) | IC50 [12]: > 100 µM (inactive)

Structure (SMILES): CCOc1cc(C)ccc1S(=O)(=O)Nc1cccnc1
IC50 [11]: > 100 µM (not active) | IC50 [12]: > 100 µM (inactive)

Structure (SMILES): COc1ccc(NS(=O)(=O)c2cc(C(=O)N3CCC3)ccc2C)cc1
IC50 (Bcl-2-related protein A1): > 20 µM (inactive) | IC50 [13]: 19.8 µM (active) | IC50 [14]: > 20 µM (inactive)

Structure (SMILES): O=c1cc(-c2ccccc2O)oc2ccc3ccccc3c12
AC50 (Cytochrome P450 3A4): 31.6 µM (inconclusive) | AC50 (Cytochrome P450 2C9): 31.6 µM (inconclusive)

More lines, now with the values ahead:

AC50 (Cytochrome P450 3A4): 3.98 µM (inconclusive) | AC50 (Cytochrome P450 2C9): 1 µM (inconclusive)
Structure (SMILES): COC(=O)NC(/C(C(=O)OC)=C(\C)NCc1ccccc1)c1ccc2ccccc2c1 (stereo unspecified)

AC50 (Cytochrome P450 2C9): 39.8 µM (inconclusive)
Structure (SMILES): NCCC[C@@H](CC(=O)N[C@@H]1CCNC[C@H]1C(=O)N[C@H](CC(=O)N[C@@H](CCC(=O)O)CC(=O)O)Cc1c[nH]c2ccccc12)NC(=O)C[C@H](CO)NC(=O)[C@@H]1CNCC[C@H]1N

IC50 (Bcl-2-related protein A1): > 20 µM (inactive) | IC50 [13]: 12.1 µM (active) | IC50 [14]: 7.99 µM (active)
Structure (SMILES): C#CCOCCOCCOCCNc1nc(N2CCN(C(=O)C([C@@H](C)O)n3cc([C@@H](N)CCCCN)nn3)CC2)nc(N2CCN(C(=O)[C@H](CCCN=C(N)N)n3cc(C(N)[C@@H](C)CC)nn3)CC2)n1 (stereo partly specified)

IC50 (Beta-galactosidase): > 66.6 µM (inactive)
Structure (SMILES): O=[N+]([O-])c1ccc(N/N=C/c2cccc(O)c2O)cc1

Reference: ChEMBL document CHEMBL1201862, “PubChem BioAssay data set” (2004)
